Measurements published in PubChem BioAssay (NCI).
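Compound exposure: 48 hours, 5 concentrations, 96-well plates. TGI denotes the concentration required for complete inhibition of growth.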

Assays:
Assay in all cases: DTP human tumour cell line panel, 48 h
UACC-62 melanoma = tested on: UACC-62 melanoma
SR leukemia = tested on: SR leukemia
HCT-116 colon = tested on: HCT-116 colon
UO-31 renal = tested on: UO-31 renal
RXF 393 renal = tested on: RXF 393 renal
PC-3 prostate = tested on: PC-3 prostate
HT29 colon = tested on: HT29 colon
MALME-3M melanoma = tested on: MALME-3M melanoma
HOP-92 NSCLC = tested on: HOP-92 NSCLC
SK-MEL-2 melanoma = tested on: SK-MEL-2 melanoma
HL-60(TB) leukemia = tested on: HL-60(TB) leukemia
SK-MEL-5 melanoma = tested on: SK-MEL-5 melanoma
HCT-15 colon = tested on: HCT-15 colon
ACHN renal = tested on: ACHN renal
HOP-62 NSCLC = tested on: HOP-62 NSCLC
MCF7 breast = tested on: MCF7 breast
COLO 205 colon = tested on: COLO 205 colon
NCI-H23 lung = tested on: NCI-H23 lung
OVCAR-8 ovarian = tested on: OVCAR-8 ovarian
A498 renal = tested on: A498 renal
NCI-H460 lung = tested on: NCI-H460 lung
IGROV1 ovarian = tested on: IGROV1 ovarian
UACC-257 melanoma = tested on: UACC-257 melanoma
HCC-2998 colon = tested on: HCC-2998 colon
NCI-H226 lung = tested on: NCI-H226 lung
SW-620 colon = tested on: SW-620 colon
SNB-75 CNS = tested on: SNB-75 CNS
MDA-N = tested on: MDA-N
RPMI-8226 leukemia = tested on: RPMI-8226 leukemia
SNB-19 CNS = tested on: SNB-19 CNS
K-562 leukemia = tested on: K-562 leukemia
BT-549 breast = tested on: BT-549 breast
U251 CNS = tested on: U251 CNS
SN12C renal = tested on: SN12C renal
MDA-MB-231 breast = tested on: MDA-MB-231 breast
786-0 renal = tested on: 786-0 renal
SK-MEL-28 melanoma = tested on: SK-MEL-28 melanoma
TK-10 renal = tested on: TK-10 renal
OVCAR-5 ovarian = tested on: OVCAR-5 ovarian
KM12 colon = tested on: KM12 colon
HS 578T breast = tested on: HS 578T breast
M14 melanoma = tested on: M14 melanoma
EKVX NSCLC = tested on: EKVX NSCLC
MOLT-4 leukemia = tested on: MOLT-4 leukemia
A549 NSCLC = tested on: A549 NSCLC
DU-145 prostate = tested on: DU-145 prostate
OVCAR-4 ovarian = tested on: OVCAR-4 ovarian
CCRF-CEM leukemia = tested on: CCRF-CEM leukemia
SK-OV-3 ovarian = tested on: SK-OV-3 ovarian
CAKI-1 renal = tested on: CAKI-1 renal
SF-295 CNS = tested on: SF-295 CNS
NCI/ADR-RES ovarian = tested on: NCI/ADR-RES ovarian
MDA-MB-435 = tested on: MDA-MB-435
OVCAR-3 ovarian = tested on: OVCAR-3 ovarian
LOX IMVI melanoma = tested on: LOX IMVI melanoma
T-47D breast = tested on: T-47D breast
SF-268 CNS = tested on: SF-268 CNS
SF-539 CNS = tested on: SF-539 CNS
NCI-H522 lung = tested on: NCI-H522 lung

## CCOC(=O)C1(C)CCCc2sc(N)c(C#N)c21 (stereo not drawn)
UACC-62 melanoma
  TGI: > 100 µM
SR leukemia
  TGI: > 100 µM
HCT-116 colon
  TGI: > 100 µM
UO-31 renal
  TGI: > 100 µM
RXF 393 renal
  TGI: > 100 µM
PC-3 prostate
  TGI: > 100 µM
HT29 colon
  TGI: > 100 µM
MALME-3M melanoma
  TGI: > 100 µM
HOP-92 NSCLC
  TGI: > 100 µM
SK-MEL-2 melanoma
  TGI: > 100 µM
HL-60(TB) leukemia
  TGI: > 100 µM
SK-MEL-5 melanoma
  TGI: > 100 µM
HCT-15 colon
  TGI: > 100 µM
ACHN renal
  TGI: > 100 µM
HOP-62 NSCLC
  TGI: > 100 µM
MCF7 breast
  TGI: > 100 µM
COLO 205 colon
  TGI: > 100 µM
NCI-H23 lung
  TGI: > 100 µM
OVCAR-8 ovarian
  TGI: > 100 µM
A498 renal
  TGI: > 100 µM
NCI-H460 lung
  TGI: > 100 µM
IGROV1 ovarian
  TGI: > 100 µM
UACC-257 melanoma
  TGI: > 100 µM
HCC-2998 colon
  TGI: > 100 µM
NCI-H226 lung
  TGI: > 100 µM
SW-620 colon
  TGI: > 100 µM
SNB-75 CNS
  TGI: > 100 µM
MDA-N
  TGI: > 100 µM
RPMI-8226 leukemia
  TGI: > 100 µM
SNB-19 CNS
  TGI: > 100 µM
K-562 leukemia
  TGI: > 100 µM
BT-549 breast
  TGI: > 100 µM
U251 CNS
  TGI: > 100 µM
SN12C renal
  TGI: > 100 µM
MDA-MB-231 breast
  TGI: > 100 µM
786-0 renal
  TGI: > 100 µM
SK-MEL-28 melanoma
  TGI: > 100 µM
TK-10 renal
  TGI: > 100 µM
OVCAR-5 ovarian
  TGI: > 100 µM
KM12 colon
  TGI: > 100 µM
HS 578T breast
  TGI: > 100 µM
M14 melanoma
  TGI: > 100 µM
EKVX NSCLC
  TGI: > 100 µM
MOLT-4 leukemia
  TGI: > 100 µM
A549 NSCLC
  TGI: > 100 µM

## Fc1cccc(F)c1C1SCc2nc3cc4ccccc4cc3n21 (stereo not drawn)
DU-145 prostate
  TGI: > 100 µM
UACC-62 melanoma
  TGI: > 100 µM
SR leukemia
  TGI: > 100 µM
HCT-116 colon
  TGI: > 100 µM
RXF 393 renal
  TGI: > 100 µM
PC-3 prostate
  TGI: > 100 µM
HT29 colon
  TGI: 80.3 µM
MALME-3M melanoma
  TGI: > 100 µM
HOP-92 NSCLC
  TGI: 69.2 µM
OVCAR-4 ovarian
  TGI: 36.7 µM
SK-MEL-2 melanoma
  TGI: > 100 µM
CCRF-CEM leukemia
  TGI: 62.4 µM
SK-OV-3 ovarian
  TGI: > 100 µM
SK-MEL-5 melanoma
  TGI: > 100 µM
CAKI-1 renal
  TGI: > 100 µM
HCT-15 colon
  TGI: 55 µM
HOP-62 NSCLC
  TGI: > 100 µM
MCF7 breast
  TGI: > 100 µM
COLO 205 colon
  TGI: > 100 µM
NCI-H23 lung
  TGI: > 100 µM
OVCAR-8 ovarian
  TGI: > 100 µM
SF-295 CNS
  TGI: > 100 µM
A498 renal
  TGI: 67.3 µM
IGROV1 ovarian
  TGI: 72.9 µM
UACC-257 melanoma
  TGI: > 100 µM
HCC-2998 colon
  TGI: 54.1 µM
NCI-H226 lung
  TGI: > 100 µM
SW-620 colon
  TGI: > 100 µM
SNB-75 CNS
  TGI: 72.3 µM
MDA-N
  TGI: > 100 µM
RPMI-8226 leukemia
  TGI: 73.7 µM
K-562 leukemia
  TGI: 48.6 µM
NCI/ADR-RES ovarian
  TGI: > 100 µM
BT-549 breast
  TGI: > 100 µM
U251 CNS
  TGI: > 100 µM
SN12C renal
  TGI: > 100 µM
MDA-MB-435
  TGI: > 100 µM
MDA-MB-231 breast
  TGI: > 100 µM
786-0 renal
  TGI: > 100 µM
SK-MEL-28 melanoma
  TGI: > 100 µM
OVCAR-3 ovarian
  TGI: 36.6 µM
LOX IMVI melanoma
  TGI: > 100 µM
TK-10 renal
  TGI: > 100 µM
OVCAR-5 ovarian
  TGI: > 100 µM
KM12 colon
  TGI: > 100 µM
T-47D breast
  TGI: > 100 µM
SF-268 CNS
  TGI: > 100 µM
M14 melanoma
  TGI: > 100 µM
SF-539 CNS
  TGI: 45.1 µM
EKVX NSCLC
  TGI: > 100 µM
MOLT-4 leukemia
  TGI: 81.5 µM
A549 NSCLC
  TGI: > 100 µM

## OC1c2[nH]c3ccccc3c2CCN2CCCCC12 (stereo not drawn)
DU-145 prostate
  TGI: > 100 µM
UACC-62 melanoma
  TGI: > 100 µM
SR leukemia
  TGI: > 100 µM
HCT-116 colon
  TGI: > 100 µM
RXF 393 renal
  TGI: > 100 µM
PC-3 prostate
  TGI: > 100 µM
HT29 colon
  TGI: > 100 µM
MALME-3M melanoma
  TGI: > 100 µM
HOP-92 NSCLC
  TGI: > 100 µM
OVCAR-4 ovarian
  TGI: > 100 µM
SK-MEL-2 melanoma
  TGI: > 100 µM
HL-60(TB) leukemia
  TGI: > 100 µM
CCRF-CEM leukemia
  TGI: > 100 µM
SK-OV-3 ovarian
  TGI: > 100 µM
CAKI-1 renal
  TGI: > 100 µM
HCT-15 colon
  TGI: > 100 µM
ACHN renal
  TGI: > 100 µM
HOP-62 NSCLC
  TGI: > 100 µM
MCF7 breast
  TGI: > 100 µM
COLO 205 colon
  TGI: > 100 µM
NCI-H23 lung
  TGI: > 100 µM
OVCAR-8 ovarian
  TGI: > 100 µM
SF-295 CNS
  TGI: > 100 µM
A498 renal
  TGI: > 100 µM
NCI-H460 lung
  TGI: > 100 µM
IGROV1 ovarian
  TGI: > 100 µM
UACC-257 melanoma
  TGI: > 100 µM
HCC-2998 colon
  TGI: > 100 µM
NCI-H226 lung
  TGI: > 100 µM
SW-620 colon
  TGI: > 100 µM
SNB-75 CNS
  TGI: > 100 µM
MDA-N
  TGI: > 100 µM
RPMI-8226 leukemia
  TGI: > 100 µM
SNB-19 CNS
  TGI: > 100 µM
NCI-H522 lung
  TGI: > 100 µM
K-562 leukemia
  TGI: > 100 µM
NCI/ADR-RES ovarian
  TGI: > 100 µM
BT-549 breast
  TGI: > 100 µM
U251 CNS
  TGI: > 100 µM
SN12C renal
  TGI: > 100 µM
MDA-MB-435
  TGI: > 100 µM
MDA-MB-231 breast
  TGI: > 100 µM
786-0 renal
  TGI: > 100 µM
SK-MEL-28 melanoma
  TGI: > 100 µM
OVCAR-3 ovarian
  TGI: > 100 µM
LOX IMVI melanoma
  TGI: > 100 µM
TK-10 renal
  TGI: > 100 µM
OVCAR-5 ovarian
  TGI: > 100 µM
KM12 colon
  TGI: > 100 µM
T-47D breast
  TGI: > 100 µM
SF-268 CNS
  TGI: > 100 µM
M14 melanoma
  TGI: > 100 µM
SF-539 CNS
  TGI: > 100 µM
EKVX NSCLC
  TGI: > 100 µM
MOLT-4 leukemia
  TGI: > 100 µM
A549 NSCLC
  TGI: > 100 µM
